{
  "source": "patent US7531333B2",
  "about": "“Process for producing isoprenoid compounds by microorganisms and a method for screening compounds with antibiotic or weeding activity” (Kyowa Hakko Kogyo Co., Ltd., priority 1998, dated 2009)",
  "key": {"[1]": {"molecular_target": "T1, 1-deoxy-D-xylulose 5-phosphate reductoisomerase (Escherichia coli, UniProt P45568)", "T1 construct": "made in house; host or cells: E. coli M15/pREP4", "T1 sequence (P45568 1-398 R277V/T278R/P279Q/I280L/A281P/H282T/T283P/M284W)": "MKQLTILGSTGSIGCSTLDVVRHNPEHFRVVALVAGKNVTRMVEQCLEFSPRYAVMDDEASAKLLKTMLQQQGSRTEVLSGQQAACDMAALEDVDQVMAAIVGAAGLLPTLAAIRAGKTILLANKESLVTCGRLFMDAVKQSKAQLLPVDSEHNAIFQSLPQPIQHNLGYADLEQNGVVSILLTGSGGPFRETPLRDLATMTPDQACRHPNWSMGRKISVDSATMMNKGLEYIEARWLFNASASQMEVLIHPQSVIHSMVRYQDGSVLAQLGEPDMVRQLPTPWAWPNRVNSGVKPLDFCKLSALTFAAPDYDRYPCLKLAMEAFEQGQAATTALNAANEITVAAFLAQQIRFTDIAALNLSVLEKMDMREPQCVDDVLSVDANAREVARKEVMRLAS", "test": "Enzymatic activity of yaeM gene product (NADPH decrease, absorbance at 340 nm)", "type": "biochemical, E. coli", "experimental": "(§1) […] of 1-deoxy-D-xylulose 5-phosphate (final concentration) synthesized as described above was added to 1 ml of a reaction solution containing […] Tris-hydrochloric acid (pH 7.5), […] MmCl2, […] NADPH and yaeM gene product obtained in Example 8 (2) ? , and then incubated at 37° C.\nThe enzymological characteristics of 1-deoxy-D-xylulose 5-phosphate reductoisomerase were examined using 1 ml of the reaction system as described in Example 8 (2) ? . Here, 1 unit is defined as the activity to oxidize 1 mmol of NADPH per a minute."}, "yaeM-deleted strain": {"tested_on": "yaeM-deleted strain", "test": "Cell growth of yaeM-disrupted strain on LB agar with 2-C-methyl-D-erythritol", "type": "cell-based, E. coli", "conditions": "1 g/l of 2-C-methyl-D-erythritol, 37° C., 2 days", "experimental": "(§2) The yaeM-disrupted strain produced as described above and its parent strain FS1576 were spread on LB agar medium and the same medium containing 1 g/l of 2-C-methyl-D-erythritol, then cultured at 37° C."}, "FS1576": {"tested_on": "FS1576", "test": "Cell growth of parent strain FS1576 on LB agar with 2-C-methyl-D-erythritol", "type": "cell-based, E. coli", "conditions": "FS1576, 1 g/l of 2-C-methyl-D-erythritol, 37° C., 2 days", "experimental": "as §2"}, "[2]": {"molecular_target": "T1, 1-deoxy-D-xylulose 5-phosphate reductoisomerase", "type": "biochemical, E. coli", "conditions": "various concentrations, 37° C., FIG. 4", "experimental": "as §1"}, "E. coli W3110": {"tested_on": "E. coli W3110", "test": "Growth of E. coli W3110 on LB agar medium containing fosmidomycin", "type": "cell-based", "conditions": "37° C., two days", "experimental": "E. coli W3110 was spread on LB agar medium, the same medium containing 3.13 mg/l of fosmidomycin, and the same medium containing 3.13 mg/l of fosmidomycin and 0.25 g/l of 2-C-methyl-D-erythritol, then cultured at 37° C."}, "[3]": {"conditions": "additive at 1 mol/l, N.D. = no activity was detected, 1 unit = activity to oxidize 1 mmol of NADPH per minute"}},
  "note": "Like-named read-outs stand apart in the source and are kept apart here.",
  "data": [
    {"smiles": "CC(=O)[C@@H](O)[C@H](O)CO", "note": "[1-deoxy-D-xylulose]", "values": [
      {"measurement": "Reaction when used as substrate instead of 1-deoxy-D-xylulose 5-phosphate", "setting": "[1]", "value": "No reaction occurred"}
    ]},
    {"smiles": "[Ca+2].[Cl-].[Cl-]", "note": "[CaCl2]", "values": [
      {"measurement": "Specific Activity", "setting": "[1]; [3]", "value": 0.2, "unit": "units/mg protein"}
    ]},
    {"smiles": "[Cl-].[Cl-].[Co+2]", "note": "[CoCl2]", "values": [
      {"measurement": "Specific Activity", "setting": "[1]", "value": 6.0, "unit": "units/mg protein"}
    ]},
    {"smiles": "C[C@](O)(CO)[C@H](O)CO", "note": "[ME, 2-C-methyl-D-erythritol]", "values": [
      {"measurement": "Cell growth on LB + ME", "setting": "yaeM-deleted strain", "value": "+"},
      {"measurement": "Cell growth on LB + ME", "setting": "FS1576", "value": "+"}
    ]},
    {"smiles": "[Cl-].[Cl-].[Mg+2]", "note": "[MgCl2]", "values": [
      {"measurement": "Specific Activity", "setting": "[1]; [3]", "value": 4.0, "unit": "units/mg protein"}
    ]},
    {"smiles": "[Cl][Mn][Cl]", "note": "[MnCl2]", "values": [
      {"measurement": "Specific Activity", "setting": "[1]; [3]", "value": 11.8, "unit": "units/mg protein"}
    ]},
    {"smiles": "NC(=O)C1=CN([C@@H]2O[C@H](COP(=O)(O)OP(=O)(O)OC[C@H]3O[C@@H](n4cnc5c(N)ncnc54)[C@H](O)[C@@H]3O)[C@@H](O)[C@H]2O)C=CC1", "note": "[NADH]", "values": [
      {"measurement": "Activity when NADPH was replaced with NADH", "setting": "[1]; relative to activity with NADPH", "value": "below 1/100"}
    ]},
    {"smiles": "NC(=O)c1ccc[n+]([C@@H]2O[C@H](COP(=O)([O-])OP(=O)(O)OC[C@H]3O[C@@H](n4cnc5c(N)ncnc54)[C@H](OP(=O)(O)O)[C@@H]3O)[C@@H](O)[C@H]2O)c1", "note": "[NADP]", "values": [
      {"measurement": "Km", "setting": "[1]; in the presence of MnCl2", "value": 7.4, "unit": "µM"}
    ]},
    {"smiles": "O=S(=O)([O-])[O-].[Ni+2]", "note": "[NiSO4]", "values": [
      {"measurement": "Specific Activity", "setting": "[1]; [3]", "value": 0.2, "unit": "units/mg protein"}
    ]},
    {"smiles": "O=S(=O)([O-])[O-].[Zn+2]", "note": "[ZnSO4]", "values": [
      {"measurement": "Specific Activity", "setting": "[1]; [3]", "value": 0.3, "unit": "units/mg protein"}
    ]},
    {"smiles": "O=CN(O)CCCP(=O)(O)O", "note": "[fosmidomycin, 3-(N-formyl-N-hydroxyamino)propylphosphonic acid]", "values": [
      {"measurement": "Inhibition of 1-deoxy-D-xylulose 5-phosphate reductoisomerase", "setting": "[2]", "value": "inhibit"},
      {"measurement": "Growth of the microorganism on LB agar medium", "setting": "E. coli W3110; 3.13 mg/l of fosmidomycin and 0.25 g/l of 2-C-methyl-D-erythritol", "value": "could grow"},
      {"measurement": "Growth of the microorganism on LB agar medium", "setting": "E. coli W3110; 3.13 mg/l of fosmidomycin only", "value": "no microorganism grew"}
    ]}
  ]
}
